Test results as given in article PMC3001885, “Metabolic Activity and mRNA Levels of Human Cardiac CYP450s Involved in Drug Metabolism” (PLoS ONE, 2010).

What was measured:
[1] = system: human heart microsomes; experiment: Verapamil metabolism in human heart microsomes (formation of metabolites, HPLC); assay type: in vitro ADME
Protocol: The HPLC system (Thermo Separation products, Fremont, CA) consisted of a SpectraSystem P4000 pump, a SpectraSystem AS3000 autosampler, a FL3000 fluorescence detector, a SpectraSystem UV3000 ultraviolet detector and PC1000 System Software.
Frozen samples of human heart ventricles (4–10 g) were immersed in cold phosphate buffer 100 mM (pH 7.4) containing potassium chloride 150 mM, EDTA 1 mM, dithiotreitol 0.5 mM and PMSF 0.01 mM (1∶3, w/v). Tissue was roughly sliced prior to homogenization using a Polytron. The resulting suspension was sonicated 3 times for 5–10 seconds. Homogenization and sonication were performed on ice. Microsomal fractions were isolated by centrifugation at 10,000 g for 20 minutes. The resulting supernatant was centrifuged twice at 100,000 g for 2 consecutive 90-minute periods. The final microsomal pellet was resuspended in a phosphate buffer 100 mM (pH 7.4), potassium chloride 150 mM and EDTA 1 mM. All procedures were performed at 4°C. […] The leftover heart microsomes were immediately shock frozen in liquid nitrogen for subsequent protein quantification. Microsomal heart proteins were quantified using a BCA Pierce kit.
All microsomal incubations were performed in duplicate.
Incubations containing microsomes, buffer and NADPH-regenerating system solution were pre-incubated at 37°C for 10 minutes. […] The enzymatic process was stopped by adding 500 µL of ice-cold acetonitrile. Different incubation times were assessed: 15 minutes to 4 hours. Incubation mixtures were centrifuged at 15,000 rpm for 10 minutes.
A series of incubations was also performed with previously inactivated human heart microsomes. The CYP450 proteins were inactivated by heating microsomes at 60°C for 10 minutes. Incubations were also conducted in the presence of nitrogen gas or carbon monoxide gas in replacement of ambient air to inactivate CYP450s.

[2] = system: CYP450s in human heart microsomes; experiment: Inhibition of verapamil metabolite formation in human heart microsomes by chemical inhibitors; settings: inhibitor 100 µM, verapamil 400 µM
[3] = left ventricular microsomes, n = 20, substrate verapamil
[4] = microsomes prepared from right ventricles, n = 8, substrate verapamil

Compound | formation rate of verapamil metabolites, median (range; minimum-maximum values) [1, 3] | formation rate of verapamil metabolites, median (range; minimum-maximum values) [1, 4] | decrease in formation of all major verapamil metabolites [2]
COc1ccc(CCNCCCC(C#N)(c2ccc(OC)c(OC)c2)C(C)C)cc1OC (stereo not drawn) [norverapamil] | 25 (5.8–214) pmol/min/mg of heart microsomal proteins | 39 (5.8–145) pmol/min/mg of heart microsomal proteins | 
CCCC(C(=O)OCCN(CC)CC)(c1ccccc1)c1ccccc1 [SKF525] |  |  | more than 80%
COc1cc(C(C#N)(CCCNCCc2ccc(OC)c(OC)c2)C(C)C)ccc1O (stereo not drawn) [PR22] | 27 (2.1–76) pmol/min/mg of heart microsomal proteins | 21 (3.7–64.4) pmol/min/mg of heart microsomal proteins | 
CCCCCCCCN [N-octylamine] |  |  | more than 80%
